Legend:
SKBR-3 cells = experiment: In vitro cytotoxic assay of anti-Trop2 ADCs (CellTiter-Glo); assay type: cell-based; details: for Bottom (%): curve fit bottom; for Top (%): curve fit top
Method: (§1) In brief, 5,000 cells/well were platted in white clear 96-well assay plates (Cat. No. 6005182, PerkinElmer) (excluding edge wells, which contained medium only) in 90 μL basic culture medium (McCoy's 5a medium for SKBR-3 cells, RPMI-1640 medium for NCI-N87 cells, EMEM medium for MCF-7 cells, and Leibovitz's L-15 medium for MDA-MB-468 cells) containing 10% FBS, I % Penicillin-Streptomycin Solution (BL505A, Biosharp Life Sciences), and 2 mM L-Glutamine (Cat. No. 25030081, ThermoFisher) and were grown at 37° C. in a humidified incubator at 5% CO2 atmosphere. […] After additional 72-hour incubation, plates were removed from incubator and equilibrated to room temperature. After approximately 30 mins, 50 μL of CellTiter-Glo® 2.0 Luminescent Cell Viability Reagent (Cat. No. G7573, Promega) were added to each well. After shaking the plates at 450 rpm for 3 mins followed by 10-min incubation without shaking, luminescence was measure on the Envision plate reader (Equipment No. 2104, PerkinElmer) with integration time of 250 ms per well. Curves of luminescence versus ADC concentration (μM) were fitted with GraphPad Prism Software.

MCF-7 cells = experiment: as above; assay type: cell-based; details: for Bottom (%): curve fit bottom
Method: as §1

[1] = system: Trop2 positive SKBR-3 cells; experiment: Antibody mediated internalization in Trop2 expressing tumor cells, FACS; assay type: cell-based; details: 100 nM
Method: The Trop2 positive cell line SKBR-3 cells (Breast cancer, ATCC No. HTB30) were used for the following internalization assay. The culture conditions are the same as in Example 21.
(§2) Cells were harvested with 0.25% Trysin/EDTA (T1320, Solarbio) and adjusted the cell concentration to 4×10^6 cells/mL with 1×PBS containing 1% FBS buffer. 100 μL cells per well were then plated in the 96-well cell culture plates and incubated with Trop2 antibodies Trop2-1, Trop2-2, Datopotamab, and Sacituzumab, as well as exemplary anti-Trop2 ADCs (ADC-4, ADC-5, ADC-6, ADC-7, ADC-8 and ADC-9) at final concentration 100 nM for seven time points (0, 0.5, 2, 4, 8, 16, and 24 hours). The mixtures were incubated at 4° C. in an atmosphere of 5% CO2 in air. At specific time points, cells were immediately washed twice and suspended in 100 μL cold wash buffer containing 2% paraformaldehyde for 30 mins. Cells were washed twice and then incubated with 1×PE anti-human IgG Fc Antibody (Cat. No. 366904, Biolegend) at 4° C. and 5% CO2 for another one hour. After the two-step washing by washing buffer, cells were re-suspended in 100 μL FACS buffer, CytoFlex Cytometry (Beckman Coulter) was used to detect the fluorescent signals of cells. The internalization ratio at several time points were calculated as the missing rate of MFI values at specific time point in that at 0 hours. Curves of internalization rate versus incubation time (hours) were plotted with the Graphpad Prism Software.

[2] = system: SKBR-3, NCI-N87, MCF-7, and MDA-MB-468 cells; experiment: In vitro cytotoxic assays of anti-Trop2 ADCs, statements on all test cell lines; assay type: cell-based; details: four Trop-2 expressing cell lines, FIG. 6
Method: Cytotoxicity of exemplary free linker-payloads (Compounds 2, 3 and 4), free Trop2 antibodies (Trop2-1, Trop2-2, Datopotamab, and Sacituzumab), exemplary anti-Trop2 ADCs (ADC-4, ADC-5, ADC-6, ADC-7, ADC-8 and ADC-9) and Trodelvy (an anti-Trop2 ADC approved by FDA) as positive control was evaluated on SKBR-3 cells (Breast cancer, ATCC No. HTB30), NCI-N87 cells (Gastric cancer, ATCC No. CRL-5822), MCF-7 cells (Breast cancer, ATCC No. HTB-22), and MDA-MB-468 cells (Breast cancer, ATCC No. HTB-132).
as §1, with “After” for “After additional 72-hour incubation, plates were removed from incubator and equilibrated to room temperature. After approximately 30 mins, 50 μL of CellTiter-Glo® 2.0 Luminescent Cell Viability Reagent (Cat. No. G7573, Promega) were added to each well. After”

[3] = system: HER2 positive SKBR-3 cells; experiment: Antibody mediated internalization in HER2 expressing tumor cells, FACS; assay type: cell-based; details: 100 nM
Method: (§3) The culture conditions of two cell lines are the same as in Example 18.
as §2, with “(Tl 320,” for “(T1320,”, “100 μL cells per well were then plated in the 96-well cell culture plates and incubated with Trop2 antibodies Trop2-1, Trop2-2, Datopotamab, and Sacituzumab, as well as exemplary anti-Trop2 ADCs (ADC-4, ADC-5, ADC-6, ADC-7, ADC-8 and ADC-9) at final concentration 100 nM for seven time points (0, 0.5, 2, 4, 8, 16, and 24 hours).” left out, “median fluorescence intensity (MFI)” for “MFI”

[4] = system: HER2 positive NCI-N87 cells; experiment: as above; assay type: cell-based; details: 100 nM
Method: as §3
as §2, with “(Tl 320,” for “(T1320,”, “100 μL cells per well were then plated in the 96-well cell culture plates and incubated with Trop2 antibodies Trop2-1, Trop2-2, Datopotamab, and Sacituzumab, as well as exemplary anti-Trop2 ADCs (ADC-4, ADC-5, ADC-6, ADC-7, ADC-8 and ADC-9) at final concentration 100 nM for seven time points (0, 0.5, 2, 4, 8, 16, and 24 hours).” left out, “median fluorescence intensity (MFI)” for “MFI”

MDA-MB-468 cells = experiment: In vitro cytotoxic assay of anti-Trop2 ADCs (CellTiter-Glo); assay type: cell-based
Method: as §1

NCI-N87 cells = experiment: as above; assay type: cell-based
Method: as §1

NCI-N87 cell xenograft = experiment: In vivo therapeutic efficacy in NCI-N87 cell xenograft mouse model; set-up: species or system BALB/c female nude mice; details: 5 mg/kg, IV, BIW*3
Method: On day 0, NCI-N87 cells (1×10^7 with 1:1 Matrigel) suspended in 0.2 mL PBS supplement with 50% (v/v) matrigel were injected subcutaneously in the right upper flank of 6- to 8-wk-old BALB/c female nude mice (purchased from Beijing Vital River Laboratory Animal Technology Co., Ltd). On day 6, mice were randomized to 8 groups (n=6) when the average tumor volume was 178 mm^3. Treatments were initiated on the very same day (defined as PG-D0). Mice at Trodelvy group received 5.0 mg/kg (i.v., BIW) for 3 wk; mice at the ADC-5 treatment groups were injected with 1.0, 2.5, and 5.0 mg/kg (i.v., BIW) ADC-5 for 3 wk; mice at ADC-6 treatment groups were injected (i.v.) with 1.0 and 2.5 mg/kg ADC-6 weekly (QW) for three doses, or 5.0 mg/kg (single dose at day PG-D0). The tumor volumes and body weights were measured and recorded twice a week. On the termination day 28 (defined as PG-D28), tumor weight were dissected and measured. Tumor growth inhibition rate (%) was calculated as (TVCR−TVTR)/TVCR (%), where TVCR and TVTR are the relative tumor volumes of the vehicle control group and the experimental groups, respectively. Mice were euthanized and deemed to have succumbed to disease once tumors grew greater than 2,500 mm^3. GraphPad Prism 6.0 Software was used for statistical analysis with a one-way ANOVA.

[5] = 72-hour incubation, read-out: ReIC50

Molecule: Sacituzumab: free Trop2 antibody
- Bottom (%) (SKBR-3 cells): 3.225%
- Top (%) (SKBR-3 cells): 9.741%
- Bottom (%) (MCF-7 cells): 0%
- MFI value of internalization assay ([1]; 0 h): 216386
- MFI value of internalization assay ([1]; 0.5 h): 205198.9
- MFI value of internalization assay ([1]; 2 h): 90975.5
- MFI value of internalization assay ([1]; 4 h): 75749.9
- MFI value of internalization assay ([1]; 8 h): 47695.7
- MFI value of internalization assay ([1]; 16 h): 33528.1
- MFI value of internalization assay ([1]; 24 h): 32475
- cytotoxic activity on the test cell lines [2]: no target cell killing effect

Molecule: T-DM1
- MFI value of internalization assay ([3]; 0 h): 89030.9
- MFI value of internalization assay ([3]; 0.5 h): 54683.9
- MFI value of internalization assay ([3]; 2 h): 51777.7
- MFI value of internalization assay ([3]; 4 h): 39019.6
- MFI value of internalization assay ([3]; 8 h): 31583.1
- MFI value of internalization assay ([3]; 16 h): 29393.7
- MFI value of internalization assay ([3]; 24 h): 20671.3
- MFI value of internalization assay ([4]; 0 h): 455385
- MFI value of internalization assay ([4]; 0.5 h): 452742.7
- MFI value of internalization assay ([4]; 2 h): 475100.1
- MFI value of internalization assay ([4]; 4 h): 369328.5
- MFI value of internalization assay ([4]; 8 h): 345220.2
- MFI value of internalization assay ([4]; 16 h): 362105.3
- MFI value of internalization assay ([4]; 24 h): 317532.7

Molecule: Trodelvy
- IC50 (MDA-MB-468 cells; [5]): 2.33 nM
- Bottom (%) (MDA-MB-468 cells; curve fit bottom): 0%
- Top (%) (MDA-MB-468 cells; curve fit top): 79.13%
- IC50 (NCI-N87 cells; [5]): 5.39 nM
- Bottom (%) (NCI-N87 cells; curve fit bottom): 0%
- Top (%) (NCI-N87 cells; curve fit top): 76.68%
- IC50 (SKBR-3 cells; [5]): 0.846 nM
- Bottom (%) (SKBR-3 cells): 0%
- Top (%) (SKBR-3 cells): 78.16%
- IC50 (MCF-7 cells; [5]): 40.5 nM
- Bottom (%) (MCF-7 cells): 0%
- Top (%) (MCF-7 cells; curve fit top): 35.94%
- TGI (%) in days after administration, Day 3 (NCI-N87 cell xenograft; Day 3): 44.83%
- TGI (%) in days after administration, Day 7 (NCI-N87 cell xenograft; Day 7): 44.43%
- TGI (%) in days after administration, Day 10 (NCI-N87 cell xenograft; Day 10): 39.67%
- TGI (%) in days after administration, Day 14 (NCI-N87 cell xenograft; Day 14): 42.59%
- TGI (%) in days after administration, Day 17 (NCI-N87 cell xenograft; Day 17): 49.05%
- TGI (%) in days after administration, Day 21 (NCI-N87 cell xenograft; Day 21): 55.07%
- TGI (%) in days after administration, Day 24 (NCI-N87 cell xenograft; Day 24): 55.32%
- TGI (%) in days after administration, Day 28 (NCI-N87 cell xenograft; Day 28): 54.53%

B1: Datopotamab: native human IgG1 antibody of DS-1062 from Daiichi Sankyo, free antibody control (antibody, chains of the INN, looked up, V domains shown)
VH: QVQLVQSGAEVKKPGASVKVSCKASGYTFTTAGMQWVRQAPGQGLEWMGWINTHSGVPKYAEDFKGRVTISADTSTSTAYLQLSSLKSEDTAVYYCARSGFGSSYWYFDVWGQGTLVTVSS
VL: DIQMTQSPSSLSASVGDRVTITCKASQDVSTAVAWYQQKPGKAPKLLIYSASYRYTGVPSRFSGSGSGTDFTLTISSLQPEDFAVYYCQQHYITPLTFGQGTKLEIK
- MFI value of internalization assay ([1]; 0 h): 237324.4
- MFI value of internalization assay ([1]; 0.5 h): 112896.1
- MFI value of internalization assay ([1]; 2 h): 41192.3
- MFI value of internalization assay ([1]; 4 h): 33418.6
- MFI value of internalization assay ([1]; 8 h): 19928.3
- MFI value of internalization assay ([1]; 16 h): 14134.9
- MFI value of internalization assay ([1]; 24 h): 8497.3

— US20250205356A1, “POLYMER-DRUG CONJUGATES” (PRIMELINK BIOTHERAPEUTICS (SHENZHEN) CO., LTD, priority 2022, published 2025)
